For data set [1], the system named is scopolamine-induced cognition impairment in ICR mice. The experiment in a line: Morris water maze test, scopolamine-induced cognition impairment. The format is in vivo. Conditions: oral 15 mg kg−1, scopolamine 1 mg kg−1 ip, probe trial on sixth day, mean ± SEM n = 6. As to the method:
The test included 5 days of learning and memory training and a probe trial on the sixth day.
Scopolamine hydrobromide was supplied by Aladdin Reagents (H1507073, Shanghai, China).
Cognitive function was evaluated by the Morris water maze analysis-management system (SMART 3.0, Panlab, Madrid, Spain), according to the method previously described[30].The maze was placed in a lit room with visual cues at 25 °C. An escape platform (10 cm diameter) was located in the centre of one quadrant of the circular pool (120 cm diameter, 60 cm height) with a depth of 40 cm water. The behavioural study of each mouse included 5 days of learning and memory training and a probe trial on day 6. The animal starting positions faced to the pool wall, and were pseudorandomised for each trial. For the cognitive evaluation, each mouse was individually evaluated on both visible-platform (days 1–2) and hidden-platform (days 3–5) versions of the water maze. All mice received nonspatial pretraining during the first two training days, which prepared them for the subsequent spatial learning test. During the two days, mice were trained to find the platform that was labelled by a small flag (5 cm tall). The hidden platform version was used to determine the retention of memory to find the platform. During the hidden-platform training trials, the escape platform was placed 1 cm below the surface of the water. On each day, the animal was subjected to two trials, each of which lasted for 90 s. The time for the mouse to find the platform (a successful escape) was recorded. […] On the last day (day 6), the platform was removed from its location and the animals were given a probe trial in which they had 90 s to search for the platform. The time taken to reach the missing platform and the number of times the animals crossed the platform location were recorded.
Data for the time of escape latency, the trajectory travelled, and the number of platform location crossings were recorded by SMART 3.0, Panlab, Madrid, Spain and processed by GraphPad Prism 6.0.

Data set [2] concerns the target T1, Aβ1–42 (Homo sapiens, UniProt P05067).
T1 construct: self-induced Aβ1–42 aggregation; purchased Anaspec Inc. AS-64129–05
The data set is described as follows: Inhibition of self-induced Aβ1–42 aggregation (thioflavin T). Conditions: under 50 µM, ThT fluorometric assay. It is filed as biochemical. As to the method: Compounds 15b and 15j were evaluated for their inhibitory capacity on self-induced Aβ1–42 aggregation based on a thioflavin T-based fluorometric assay. […]
Corresponding Authors: clarissa0710@163.com (Y. Chen); sunhaopeng@163.com (H. P.
1.1. Inhibition of self-induced Aβ1–42 aggregation
Inhibitory effect of the compounds on self -induced Aβ1–42 aggregation was determined through a thioflavin T (ThT)-(T3516, Sigma-Aldrich) binding assay.
Firstly, aliquots of 2 μL of Aβ 1–42 (AS-64129–05 Anaspec Inc.) containing 2 mg/mL HFIP (1,1,1,3,3,3-hexafluoro-2-propanol, 52517 (Sigma-Aldrich) were stocked in DMSO).
Then, they were diluted with 0.215M sodium phosphate buffer (pH 8.0) to the final concentration of 500 μM. Test compounds were dissolved in DMSO and then prepared at a concentration of 50 μM by the buffer. Resveratrol was used as a positive control. […]
Fluorescence intensity was read (excitation wavelength 450 nm, emission wavelength 485 nm) on a microplate reader (Thermo, Varioskan Flas h 3001, USA).
The calculation of the inhibitory rate of Aβ 1–42 self-induced aggregation was performed using the following equation: (1 -IFi/IFc) × 100 %. IFi and IFc were the fluorescence intensities measured in the presence and absence of inhibitors, respe ctively, after subtracting the background fluorescence of the 5mM ThT solution. Each compound was measured in triplicate. […]

The subject of data set [3] is PC-12 cells. The experiment in a line: In vitro cell toxicity on PC-12 cell line (MTT). It is filed as cell-based. Particulars: 10, 20, 30 and 50 µM, 24 h. An excerpt:
We focussed on the cell toxicity of the synthesised compounds. Compounds 15b and 15j were selected as representative compounds for the evaluation of their potential cytotoxic effects.
Figure 4. (A) In vitro cell toxicity of 15b and 15j on PC-12 cell line. (B) In vitro hepatotoxicity of 15b and 15j on HepG2 cell line. Data were expressed as mean ± SD (n = 3).
PC12 cell and HepG2 cell (human hepatocellular liver carcinoma cell line purchased from Institute of Materia of Chinese Academy of Medical Science), were grown in DMEM supplemented with 10% FBS at 37 °C in a humidified atmosphere containing 5% CO2. For the experiments, cells (6 × 10^3 cells/well) were seeded in 96-well plate in complete medium. […]

Data set [4] deals with liver. The data set is described as follows: Liver histopathological study (HE staining). Particulars: 36 h after administration, compared to control group. The source says: Figure 7. […] HE staining, original magnification ×200.

From publication PMC6968383, “Design, synthesis, in vitro and in vivo evaluation of benzylpiperidine-linked 1,3-dimethylbenzimidazolinones as cholinesterase inhibitors against Alzheimer’s disease” (Journal of Enzyme Inhibition and Medicinal Chemistry, 2019) come the findings set out here.

T1 sequence (P05067 672-713): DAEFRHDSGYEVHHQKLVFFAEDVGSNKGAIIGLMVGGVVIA

On to `Cc1ccccc1CN1CCC(CNS(=O)(=O)c2ccc3c(c2)n(C)c(=O)n3C)CC1` [Compound 15b, 1,3-dimethyl-N-((1–(2-methylbenzyl)piperidin-4-yl)methyl)-2-oxo-2,3-dihydro-1H-benzo[d]imidazole-5-sulphonamide], for which, in data set [1], the Distance to target was 252.32 ± 8.42 cm and the Latency to target was 9.29 ± 0.31 s. In addition, the “inhibition of self-induced Aβ1–42 aggregation” value in data set [2] was “no inhibitory activities”. For the same molecule, in data set [3], the “cytotoxicity to PC-12 cells” value is “no cytotoxicity”. The “morphologic changes in liver” value in data set [4] is listed as “did not result in remarkable morphologic changes in liver”.
The like results for `Cn1c(=O)n(C)c2cc(S(=O)(=O)NCC3CCN(Cc4cccc(Br)c4)CC3)ccc21` [Compound 15j, N-((1–(3-bromobenzyl)piperidin-4-yl)methyl)-1,3-dimethyl-2-oxo-2,3-dihydro-1H-benzo[d]imidazole-5-sulphonamide] were, in that order, 350.27 ± 16.59 cm, 12.85 ± 0.72 s, “no inhibitory activities”, “no cytotoxicity” and “did not result in remarkable morphologic changes in liver”.
